Experiment [1] concerns the target Phosphatidylinositol 4-kinase type 2-alpha (Homo sapiens) (UniProt Q9BTU6). Description: Selectivity interaction (Adapta Assay) EUB0001632a PI4K2A. Conditions: at 10 µM.
The target in experiment [2] is Mitogen-activated protein kinase 1 (Homo sapiens, UniProt P28482). Description: Selectivity interaction (KinomeScan (DiscoverX)) EUB0000595a MAPK1. The following applies: at 10 µM.
In experiment [3] the target is T1, Mitogen-activated protein kinase kinase kinase 12 (Homo sapiens) (UniProt Q12852).
T1 sequence (whole entry): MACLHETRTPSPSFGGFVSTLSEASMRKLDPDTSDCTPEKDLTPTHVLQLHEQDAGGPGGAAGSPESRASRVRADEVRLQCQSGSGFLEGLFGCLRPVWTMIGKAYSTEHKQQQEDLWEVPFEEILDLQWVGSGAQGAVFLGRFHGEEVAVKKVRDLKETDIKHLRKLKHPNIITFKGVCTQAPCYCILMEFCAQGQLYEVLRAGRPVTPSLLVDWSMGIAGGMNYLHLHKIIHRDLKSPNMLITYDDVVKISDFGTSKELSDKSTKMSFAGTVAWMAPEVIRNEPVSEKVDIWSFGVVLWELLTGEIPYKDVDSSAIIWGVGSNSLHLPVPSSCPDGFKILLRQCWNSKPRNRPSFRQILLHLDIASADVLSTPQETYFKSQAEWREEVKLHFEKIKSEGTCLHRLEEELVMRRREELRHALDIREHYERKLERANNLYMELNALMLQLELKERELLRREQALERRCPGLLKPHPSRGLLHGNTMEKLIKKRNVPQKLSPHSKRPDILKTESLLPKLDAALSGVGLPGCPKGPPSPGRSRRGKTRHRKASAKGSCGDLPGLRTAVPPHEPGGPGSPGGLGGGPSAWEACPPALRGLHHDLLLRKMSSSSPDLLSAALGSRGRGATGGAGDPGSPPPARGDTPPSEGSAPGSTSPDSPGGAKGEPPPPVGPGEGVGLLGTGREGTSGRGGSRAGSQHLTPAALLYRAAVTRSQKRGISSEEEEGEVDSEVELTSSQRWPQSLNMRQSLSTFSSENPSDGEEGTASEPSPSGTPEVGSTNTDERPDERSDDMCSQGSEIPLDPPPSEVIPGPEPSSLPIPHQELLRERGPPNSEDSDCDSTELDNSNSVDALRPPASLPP
Description: Selectivity interaction (KinomeScan (DiscoverX)) EUB0001619a MAP3K12. Conditions: at 1 µM.

In experiment [4] the target is Angiopoietin-1 receptor (Homo sapiens) (UniProt Q02763). The experiment is described as follows: Selectivity interaction (KinomeScan (DiscoverX)) EUB0001619a TEK. The following applies: at 1 µM.
In experiment [5] the target is Tyrosine-protein kinase ABL2 (Homo sapiens, UniProt P42684). Description: Selectivity interaction (KinomeScan (DiscoverX)) EUB0000666a ABL2. Conditions: at 10 µM.
Experiment [6] concerns the target Mitogen-activated protein kinase 7 (Homo sapiens) (UniProt Q13164). The experiment is described as follows: Selectivity interaction (KinomeScan (DiscoverX)) EUB0000607a MAPK7. Conditions: at 10 µM.
Experiment [7] has as its target Serine/threonine-protein kinase SIK3 (Homo sapiens) (UniProt Q9Y2K2). Description: Selectivity interaction (ActivX KiNativ screen (kinase selectivity in THP-1 cell lysates)) EUB0000639a SIK3. The experiment is classed as subcellular. Conditions: lysate.
In experiment [8] the target is T2, Serine/threonine-protein kinase 3 (Homo sapiens) (UniProt Q13188).
T2 sequence (whole entry): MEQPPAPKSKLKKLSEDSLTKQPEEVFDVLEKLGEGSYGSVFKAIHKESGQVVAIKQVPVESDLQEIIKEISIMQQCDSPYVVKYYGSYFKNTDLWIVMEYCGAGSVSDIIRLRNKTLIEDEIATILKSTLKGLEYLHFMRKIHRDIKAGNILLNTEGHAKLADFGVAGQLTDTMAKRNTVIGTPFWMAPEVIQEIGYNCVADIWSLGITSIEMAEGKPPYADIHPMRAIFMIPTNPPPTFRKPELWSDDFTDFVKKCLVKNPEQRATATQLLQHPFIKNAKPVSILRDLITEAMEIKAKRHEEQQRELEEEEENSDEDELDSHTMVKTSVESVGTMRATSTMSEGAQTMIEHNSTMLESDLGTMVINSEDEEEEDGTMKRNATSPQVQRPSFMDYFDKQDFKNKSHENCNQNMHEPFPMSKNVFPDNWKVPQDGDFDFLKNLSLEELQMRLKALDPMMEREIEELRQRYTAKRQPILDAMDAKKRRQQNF
The experiment is described as follows: Selectivity interaction (Kinase panel (literature)) EUB0001199aCl STK3. Conditions: at 1 µM.

Experiment [9] has as its target T3, Dual specificity mitogen-activated protein kinase kinase 7 (Homo sapiens) (UniProt O14733).
T3 sequence (whole entry): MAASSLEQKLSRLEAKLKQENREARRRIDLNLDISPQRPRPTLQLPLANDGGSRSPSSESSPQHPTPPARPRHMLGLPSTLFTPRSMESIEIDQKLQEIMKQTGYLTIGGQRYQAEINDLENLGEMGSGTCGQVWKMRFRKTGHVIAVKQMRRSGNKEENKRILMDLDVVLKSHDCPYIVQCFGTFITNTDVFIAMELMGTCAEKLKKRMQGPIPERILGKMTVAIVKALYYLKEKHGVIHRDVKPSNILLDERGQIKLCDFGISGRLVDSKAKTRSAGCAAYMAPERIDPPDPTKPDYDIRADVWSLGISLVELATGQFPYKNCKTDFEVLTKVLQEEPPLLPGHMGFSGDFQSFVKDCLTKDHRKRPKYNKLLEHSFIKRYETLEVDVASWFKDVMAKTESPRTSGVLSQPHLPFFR
Description: Selectivity interaction (KinomeScan (DiscoverX)) EUB0001049a MAP2K7. The following applies: at 1 µM.

Experiment [10] concerns Serine/threonine-protein kinase B-raf (Homo sapiens), P15056 [V600E]. Description: Selectivity interaction (KinomeScan (DiscoverX)) EUB0000618a BRAF. The following applies: at 10 µM.
Experiment [11] has as its target RAF proto-oncogene serine/threonine-protein kinase (Homo sapiens) (UniProt P04049). The experiment is described as follows: Selectivity interaction (KinomeScan (DiscoverX)) EUB0000618a RAF1. The following applies: at 10 µM.
Experiment [12] has as its target T1, Mitogen-activated protein kinase kinase kinase 12 (Homo sapiens). Description: Selectivity interaction (KinomeScan (DiscoverX)) EUB0001079a MAP3K12. The following applies: at 1 µM.
Experiment [13] addresses 5-hydroxytryptamine receptor 1B (Homo sapiens) (UniProt P28222). Description: Selectivity interaction (Panel of kinases, GPCRs, ion channels and transporters (enzymatic assay)) EUB0000266bCl HTR1B.
Experiment [14] deals with T1, Mitogen-activated protein kinase kinase kinase 12 (Homo sapiens). Description: Selectivity interaction (KinomeScan (DiscoverX)) EUB0000229b MAP3K12. Conditions: at 10 µM.

Structures are written as SMILES. Bounds are passed on as bounds.

Consider twelve molecules from ChEMBL document CHEMBL5465560, “Selectivity Literature for EUbOPEN Chemogenomic Library” (2024).

Serine/threonine-protein kinase SIK3 (Homo sapiens), sequence (Q9Y2K2 whole entry, looked up): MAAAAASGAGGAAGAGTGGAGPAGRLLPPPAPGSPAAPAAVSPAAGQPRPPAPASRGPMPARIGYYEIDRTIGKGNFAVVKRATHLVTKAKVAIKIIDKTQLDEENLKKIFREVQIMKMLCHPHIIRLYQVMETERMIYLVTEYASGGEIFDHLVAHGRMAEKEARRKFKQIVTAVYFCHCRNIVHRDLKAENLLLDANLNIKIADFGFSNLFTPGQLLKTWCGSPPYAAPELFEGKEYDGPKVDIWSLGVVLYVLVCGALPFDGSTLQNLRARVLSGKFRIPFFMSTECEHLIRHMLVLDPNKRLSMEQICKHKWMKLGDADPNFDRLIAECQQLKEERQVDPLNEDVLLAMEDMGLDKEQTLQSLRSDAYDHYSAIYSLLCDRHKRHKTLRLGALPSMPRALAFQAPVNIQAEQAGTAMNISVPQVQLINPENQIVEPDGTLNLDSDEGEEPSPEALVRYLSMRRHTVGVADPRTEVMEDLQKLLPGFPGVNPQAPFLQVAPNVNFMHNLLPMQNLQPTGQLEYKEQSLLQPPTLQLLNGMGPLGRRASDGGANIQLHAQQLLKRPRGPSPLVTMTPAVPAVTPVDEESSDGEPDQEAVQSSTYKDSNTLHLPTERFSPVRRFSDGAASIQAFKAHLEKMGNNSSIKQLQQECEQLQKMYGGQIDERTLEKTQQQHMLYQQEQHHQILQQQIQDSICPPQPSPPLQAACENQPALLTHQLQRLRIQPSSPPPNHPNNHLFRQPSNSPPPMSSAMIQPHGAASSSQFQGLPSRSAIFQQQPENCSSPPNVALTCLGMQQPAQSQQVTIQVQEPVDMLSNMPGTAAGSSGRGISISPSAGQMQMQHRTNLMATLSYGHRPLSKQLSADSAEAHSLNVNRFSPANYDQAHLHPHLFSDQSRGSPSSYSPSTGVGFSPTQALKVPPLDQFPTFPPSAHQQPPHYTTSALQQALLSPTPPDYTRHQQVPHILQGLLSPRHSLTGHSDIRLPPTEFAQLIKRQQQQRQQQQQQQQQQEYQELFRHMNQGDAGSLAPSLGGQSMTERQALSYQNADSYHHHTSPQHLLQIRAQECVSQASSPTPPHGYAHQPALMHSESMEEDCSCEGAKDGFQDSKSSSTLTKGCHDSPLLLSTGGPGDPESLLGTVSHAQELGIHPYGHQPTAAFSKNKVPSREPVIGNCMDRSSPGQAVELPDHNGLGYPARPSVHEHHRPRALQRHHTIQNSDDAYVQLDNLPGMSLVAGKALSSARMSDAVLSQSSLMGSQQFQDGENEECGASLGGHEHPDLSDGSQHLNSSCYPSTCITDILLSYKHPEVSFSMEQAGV
Mitogen-activated protein kinase 7 (Homo sapiens), sequence (Q13164 2-816 limits assumed): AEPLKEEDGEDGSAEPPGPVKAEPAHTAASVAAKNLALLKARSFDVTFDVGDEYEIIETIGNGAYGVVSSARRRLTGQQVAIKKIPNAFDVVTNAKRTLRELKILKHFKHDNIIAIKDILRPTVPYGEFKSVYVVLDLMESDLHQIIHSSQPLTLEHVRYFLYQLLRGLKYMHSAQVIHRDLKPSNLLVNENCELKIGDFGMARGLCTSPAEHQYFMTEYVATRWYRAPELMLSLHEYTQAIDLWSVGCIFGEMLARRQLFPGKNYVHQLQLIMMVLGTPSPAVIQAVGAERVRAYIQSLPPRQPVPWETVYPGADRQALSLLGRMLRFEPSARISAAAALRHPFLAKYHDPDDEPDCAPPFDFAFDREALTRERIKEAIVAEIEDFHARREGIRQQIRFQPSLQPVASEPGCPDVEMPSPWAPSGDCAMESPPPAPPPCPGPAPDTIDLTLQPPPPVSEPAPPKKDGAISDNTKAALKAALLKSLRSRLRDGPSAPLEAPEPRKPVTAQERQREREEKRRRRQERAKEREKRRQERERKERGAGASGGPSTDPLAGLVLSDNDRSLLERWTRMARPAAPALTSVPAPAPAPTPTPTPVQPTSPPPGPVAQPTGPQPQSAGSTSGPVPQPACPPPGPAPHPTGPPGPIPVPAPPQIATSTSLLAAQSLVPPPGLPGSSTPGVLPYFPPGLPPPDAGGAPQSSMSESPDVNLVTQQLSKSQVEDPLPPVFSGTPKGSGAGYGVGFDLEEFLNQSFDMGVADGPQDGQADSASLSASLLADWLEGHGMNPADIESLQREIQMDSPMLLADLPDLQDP
Serine/threonine-protein kinase B-raf (Homo sapiens), P15056 [V600E], sequence (P15056 whole entry V600E): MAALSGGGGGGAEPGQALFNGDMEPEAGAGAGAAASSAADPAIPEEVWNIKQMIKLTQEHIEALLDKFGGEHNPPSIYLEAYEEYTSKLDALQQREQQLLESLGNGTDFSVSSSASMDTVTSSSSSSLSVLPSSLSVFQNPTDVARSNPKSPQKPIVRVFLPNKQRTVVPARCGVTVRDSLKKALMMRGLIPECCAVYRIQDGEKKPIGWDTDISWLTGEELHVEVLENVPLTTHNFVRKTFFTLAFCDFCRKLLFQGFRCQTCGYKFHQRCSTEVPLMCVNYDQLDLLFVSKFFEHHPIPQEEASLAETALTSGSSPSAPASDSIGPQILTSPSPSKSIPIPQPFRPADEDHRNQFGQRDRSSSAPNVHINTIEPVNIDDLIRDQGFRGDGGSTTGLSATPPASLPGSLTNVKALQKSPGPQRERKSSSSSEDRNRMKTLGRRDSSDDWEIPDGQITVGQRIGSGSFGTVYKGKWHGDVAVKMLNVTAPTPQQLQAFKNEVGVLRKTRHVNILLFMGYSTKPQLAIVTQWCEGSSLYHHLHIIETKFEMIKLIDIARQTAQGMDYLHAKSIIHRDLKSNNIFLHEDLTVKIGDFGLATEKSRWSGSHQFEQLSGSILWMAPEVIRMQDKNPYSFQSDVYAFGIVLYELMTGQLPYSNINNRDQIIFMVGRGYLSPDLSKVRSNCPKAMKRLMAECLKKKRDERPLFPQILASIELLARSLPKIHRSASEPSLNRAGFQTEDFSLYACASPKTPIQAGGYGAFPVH
RAF proto-oncogene serine/threonine-protein kinase (Homo sapiens), sequence (P04049 whole entry): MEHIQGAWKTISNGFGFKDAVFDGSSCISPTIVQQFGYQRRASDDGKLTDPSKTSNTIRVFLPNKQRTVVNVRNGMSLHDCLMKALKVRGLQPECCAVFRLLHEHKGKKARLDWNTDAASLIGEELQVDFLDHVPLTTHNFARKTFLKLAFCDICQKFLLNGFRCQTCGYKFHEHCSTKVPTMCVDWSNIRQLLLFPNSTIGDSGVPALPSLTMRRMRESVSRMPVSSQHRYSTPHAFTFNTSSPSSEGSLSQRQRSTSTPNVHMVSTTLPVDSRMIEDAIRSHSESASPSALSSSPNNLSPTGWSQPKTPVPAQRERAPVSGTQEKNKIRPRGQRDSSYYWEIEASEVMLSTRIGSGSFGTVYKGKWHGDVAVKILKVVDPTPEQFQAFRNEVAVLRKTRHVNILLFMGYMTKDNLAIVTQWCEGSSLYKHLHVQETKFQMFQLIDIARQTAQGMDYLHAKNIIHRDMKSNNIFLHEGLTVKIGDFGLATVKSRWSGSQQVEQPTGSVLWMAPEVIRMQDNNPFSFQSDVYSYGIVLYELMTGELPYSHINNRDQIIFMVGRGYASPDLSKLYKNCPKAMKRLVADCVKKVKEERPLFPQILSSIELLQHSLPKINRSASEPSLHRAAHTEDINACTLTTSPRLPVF
Tyrosine-protein kinase ABL2, sequence (P42684 whole entry): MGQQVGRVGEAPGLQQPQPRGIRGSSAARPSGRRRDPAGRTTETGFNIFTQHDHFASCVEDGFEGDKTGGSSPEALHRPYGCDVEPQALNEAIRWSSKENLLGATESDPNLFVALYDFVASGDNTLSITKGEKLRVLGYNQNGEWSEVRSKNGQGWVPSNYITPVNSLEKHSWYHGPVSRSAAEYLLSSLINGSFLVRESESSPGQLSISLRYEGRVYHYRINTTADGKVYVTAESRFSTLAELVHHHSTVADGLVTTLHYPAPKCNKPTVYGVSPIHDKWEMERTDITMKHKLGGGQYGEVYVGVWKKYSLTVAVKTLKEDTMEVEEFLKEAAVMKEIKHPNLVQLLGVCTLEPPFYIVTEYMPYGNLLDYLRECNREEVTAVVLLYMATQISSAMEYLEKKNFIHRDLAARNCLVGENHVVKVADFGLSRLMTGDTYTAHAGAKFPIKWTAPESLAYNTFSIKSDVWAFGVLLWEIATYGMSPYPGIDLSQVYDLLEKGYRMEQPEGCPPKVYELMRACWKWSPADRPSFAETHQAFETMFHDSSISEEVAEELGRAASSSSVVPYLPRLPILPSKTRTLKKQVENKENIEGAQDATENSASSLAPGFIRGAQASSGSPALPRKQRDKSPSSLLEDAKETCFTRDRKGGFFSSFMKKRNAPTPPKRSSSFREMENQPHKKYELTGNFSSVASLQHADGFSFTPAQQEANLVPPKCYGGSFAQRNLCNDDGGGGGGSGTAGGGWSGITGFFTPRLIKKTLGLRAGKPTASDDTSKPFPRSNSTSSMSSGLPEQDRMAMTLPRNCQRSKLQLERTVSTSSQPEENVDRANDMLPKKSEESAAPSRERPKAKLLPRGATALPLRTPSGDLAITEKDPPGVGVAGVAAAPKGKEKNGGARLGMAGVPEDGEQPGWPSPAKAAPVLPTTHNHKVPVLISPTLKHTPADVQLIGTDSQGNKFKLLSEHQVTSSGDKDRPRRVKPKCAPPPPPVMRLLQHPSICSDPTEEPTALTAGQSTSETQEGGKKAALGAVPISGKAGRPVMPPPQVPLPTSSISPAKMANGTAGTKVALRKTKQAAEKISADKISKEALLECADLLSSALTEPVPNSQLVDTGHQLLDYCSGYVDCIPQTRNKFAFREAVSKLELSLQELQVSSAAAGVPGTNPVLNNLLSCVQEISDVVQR
Mitogen-activated protein kinase 1, sequence (P28482 whole entry): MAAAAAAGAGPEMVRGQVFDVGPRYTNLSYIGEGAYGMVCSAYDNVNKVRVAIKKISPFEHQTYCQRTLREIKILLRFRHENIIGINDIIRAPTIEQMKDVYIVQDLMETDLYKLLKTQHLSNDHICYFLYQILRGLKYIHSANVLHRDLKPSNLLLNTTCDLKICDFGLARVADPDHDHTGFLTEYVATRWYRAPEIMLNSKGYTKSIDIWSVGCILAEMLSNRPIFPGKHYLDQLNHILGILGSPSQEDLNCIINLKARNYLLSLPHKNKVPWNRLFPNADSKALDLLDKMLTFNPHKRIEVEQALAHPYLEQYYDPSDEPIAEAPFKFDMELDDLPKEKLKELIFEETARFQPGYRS

Regarding `Cn1cc(-n2cnc3c(NCc4nc5cc(Cl)c(Cl)cc5[nH]4)nc(N4CCOCC4)nc32)cn1`, in [1], the % of inhibition was determined as 1.38%.

With `COCC(=O)NC/C=C/c1ccc2ncnc(Nc3ccc(Oc4ccc(C)nc4)c(C)c3)c2c1` [CP-724714], in [2], the % of control was determined as 100%.

Consider `N#Cc1cccc(-c2c[nH]c3ncnc(N4CCOCC4)c23)c1`, for which the % of control in [3] amounted to 96%; in experiment [4] it was 100%. In the case of `O=C(NOC[C@H](O)CO)c1ccc(F)c(F)c1Nc1ccc(I)cc1F`, the % of control in experiment [5] is 90%.

In turn, `CNC(=O)Nc1ccc(-c2nc(N3CC4CCC(C3)O4)c3cnn(C4CCC5(CC4)OCCO5)c3n2)cc1` registered a % of control in experiment [6] of 100%. Consider `CC[C@@H]1[C@H](F)C(=O)N[C@@H]1COc1nccc2cc(C(N)=O)c(OC)cc12` [ZIMLOVISERTIB], for which the % of inhibition in [7] (at 0.01 µM) is 5.4%; in [7] (at 0.04 µM), 3.4%; in experiment [7] (at 0.2 µM), 15.7%; in experiment [7] (at 1 µM), -1.4%; in experiment [7] (at 5 µM), -7.8%. With `CN1Cc2nccc(-c3cn(C)nc3-c3ccc(F)cc3)c2C1=O`, the % of inhibition in [8] was -2%.

Take `COc1cc(Nc2nc(C)cc(-c3cnn4nc(OC)ccc34)n2)cc(C(F)(F)F)c1`: the % of control in experiment [9] worked out at 99%. Regarding `O[C@H]1CC[C@H](Nc2ncc3nc(Nc4c(F)cc(F)cc4F)n([C@H]4CCOC4)c3n2)CC1`, the figures for the % of control in [10] and in experiment [11] were 98% and 100%, respectively. In the case of `Nc1cnc(N2CCc3cc(S(=O)(=O)Nc4c(F)cc(Cl)cc4F)cc(N4CCCC4=O)c32)nc1` [TP-020n], the % of control in [12] was found to be 100%. As for `CCn1c(-c2nc3cc(C(=O)N4CCCC(N)C4)ccc3n2C)cc2ccccc21` (stereo not drawn), in [13], the pXC50 is under 4.5 M. Consider `COc1cc(N(C)c2ccnc3ccc(C(F)(F)F)cc23)cc(OC)c1OC`, for which, in experiment [14], the % binding turned out to be 78%.
